Reference: patent publication EP0578521B1, “New peptide derivatives with bradykinin-antagonistic activity, process to prepare them and pharmaceutical compositions containing them” (ADIR ET COMPAGNIE, priority 1992, dated 1996)
Read-outs that look alike come from different tables or passages of the source. Square brackets hold non-standard residues; d marks the D form. Peptide text beside a SMILES is read from it. * marks the point of attachment. Benzoyl(4-guanidino) = N=C(N)Nc1ccc(C(=O)*)cc1; Oic = O=C(O)[C@@H]1C[C@@H]2CCCC[C@@H]2N1; Hyp = O=C(O)[C@@H]1C[C@@H](O)CN1; dTic = O=C(O)[C@H]1Cc2ccccc2CN1; 2Thi = N[C@@H](Cc1cccs1)C(=O)O; Agp = N=C(N)NC[C@H](N)C(=O)O

Columns and labels:
Récepteur B2 = type: cell-based, lapin
Method: Exemple 44 : Mesure in vitro de l'effet des dérivés de l'invention vis à vis de la réponse contractile du muscle lisse de la veine jugulaire de lapin induite par la bradykinine
Cette étude a été réalisée selon le protocole décrit par D. REGOLI et J. BARABE (Récepteur B2-Pharmacology of Bradykinin and related kinins, Pharm. Rev., 32, 1, 1-46, 1980). Des anneaux de veine jugulaire sont suspendus dans des chambres d'organes (40 ml) contenant une solution de KREBS thermostatée à 37°C, oxygénée en permanence par un bullage de 95 % 02/5 % CO2. La force isométrique développée par les anneaux est mesurée et enregistrée. La tension de base est d'environ 2 g. Les cuves reçoivent les concentrations du dérivé de l'invention à tester (10^-8M à 10^-5M), une cuve contrôle reçoit le solvant. Une courbe concentration réponse à la bradykinine est réalisée de 10^-10M à 10^-5M avec une progression par demi-log. La puissance des antagonistes à la bradykinine est mesurée à partir des courbes log dose-effet permettant la détermination des pA2 (logarithme négatif de la concentration molaire du dérivé de l'invention qui oblige à doubler la concentration de bradykinine pour obtenir le même effet). Lors de ce test, les dérivés de l'invention ont un pA2 compris entre 9 et 10. Plus particulièrement, le pA2 du composé de l'exemple 2 est égal à 9,1 ± 0,1, celui de l'exemple 3 est égal à 9,4 ± 0,1, celui de l'exemple 5 est égal à 9,3 ± 0,1.

[1] = test system: oedème de la patte de rat induite par injection de carragénine; settings: rat, 0,1 mg/kg I.V., at time 1 hour, versus vehicle control group
From the text: L'activité anti-inflammatoire des dérivés de l'invention a été mesurée en utilisant le modèle de l'oedème de la patte de rat induite par injection de carragénine (WINTER G. A. et coll. Proc. Soc. Exp. Biol. Med., 3, 544-547, 1960). Cette étude est effectuée sur rats mâles de 180-210 g par lot de 8. Les dérivés de l'invention sont administrés par voie I.V. au temps 0 précédant immédiatement l'injection de carragénine par voie sous-cutanée dans la plante de la patte arrière droite du rat (Carragénine lambda type IV, sigma, solution à 1 %, volume injecté 0,1 ml). Le volume de la patte aux différents temps de l'expérimentation est mesurée par plethysmographie. L'inhibition de l'oedème au temps 3 heures est calculée par rapport à un lot contrôle ayant reçu le véhicule et exprimée en pourcentage d'inhibition.

[2] = antagonism of bradykinin concentration-response curve (10^-10M to 10^-5M), rabbit jugular vein rings, compound 10^-8M to 10^-5M, 37°C

| Molecule | pA2 (Récepteur B2) | inhibition de l'oedème [1] | pA2 (Récepteur B2; [2]) |
| --- | --- | --- | --- |
| N=C(N)NCCC[C@H](NC(=O)c1ccc(NC(=N)N)cc1)C(=O)N1CCC[C@H]1C(=O)N1C[C@H](O)C[C@H]1C(=O)NCC(=O)N[C@@H](Cc1cccs1)C(=O)N[C@@H](CO)C(=O)N1Cc2ccccc2C[C@@H]1C(=O)N1[C@H](C(=O)N[C@@H](CNC(=N)N)C(=O)O)C[C@@H]2CCCC[C@@H]21 [Exemple 5, Gba-Arg-Pro-Hyp-Gly-Thi-Ser-tic-Oic-Gpr-OH] ({Benzoyl(4-guanidino)}-RP[Hyp]G[2Thi]S[dTic][Oic][Agp]-OH) | 9,3 ± 0,1 |  |  |
| Gba-Arg-Pro-Hyp-Gly-Thi-Ser-[3,2-c]ttp-Oic-Arg [Exemple 2] |  | 36% | 9,1 ± 0,1 |
| arg-Arg-Pro-Hyp-Gly-Thi-Ser-[3,2-c]ttp-Oic-Arg [Exemple 3] |  | 36% | 9,4 ± 0,1 |
